From ChEMBL document CHEMBL6121005 (Eur J Med Chem, 2025)
Active and inactive are the calls of the source. The calls are words filed in the database; no cut-off is given here.

Legend:
[1] = biological target: T1, Cholinesterase (Homo sapiens, UniProt P06276); assay: Inhibition of human serum BuChE using butyrylthiocholine iodide as substrate at 10 uM incubated for 10 mins followed by substrate addition by DTNB reagent based Ellman's method relative to control
[2] = biological target: Acetylcholinesterase (Homo sapiens, UniProt P22303); assay: Inhibition of human erythrocytes AChE measured after 10 mins by Ellman's method
Acetylcholinesterase, sequence (P22303 whole entry): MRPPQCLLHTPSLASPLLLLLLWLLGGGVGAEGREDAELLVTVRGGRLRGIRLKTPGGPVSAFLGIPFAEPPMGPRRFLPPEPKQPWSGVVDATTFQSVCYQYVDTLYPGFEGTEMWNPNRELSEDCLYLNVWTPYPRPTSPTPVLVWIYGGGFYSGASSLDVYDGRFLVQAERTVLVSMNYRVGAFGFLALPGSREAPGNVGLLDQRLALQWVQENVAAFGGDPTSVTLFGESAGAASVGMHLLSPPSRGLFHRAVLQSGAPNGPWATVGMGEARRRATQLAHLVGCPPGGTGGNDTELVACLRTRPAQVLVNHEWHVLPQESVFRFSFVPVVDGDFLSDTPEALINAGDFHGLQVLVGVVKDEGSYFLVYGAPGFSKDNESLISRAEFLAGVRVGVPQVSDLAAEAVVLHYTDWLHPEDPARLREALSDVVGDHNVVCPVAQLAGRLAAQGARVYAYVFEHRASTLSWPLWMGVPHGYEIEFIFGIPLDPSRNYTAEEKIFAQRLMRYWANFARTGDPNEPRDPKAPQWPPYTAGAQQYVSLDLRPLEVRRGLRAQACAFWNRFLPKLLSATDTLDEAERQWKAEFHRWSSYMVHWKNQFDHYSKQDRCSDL

[3] = biological target: T1, Cholinesterase; assay: Inhibition of human serum BuChE using butyrylthiocholine iodide as substrate incubated for 10 mins followed by substrate addition by DTNB reagent based Ellman's method
[4] = system: PC-12; assay: Antioxidant activity against H2O2-induced toxicity in rat PC12 cells at 12.5 uM preincubated for 2 hrs and measured after 24 hrs by CCK-8 assay; type: functional, cell-based; details: time 26.0 hrs
[5] = system: PC-12; assay: Cytoprotective against rat PC12 cells assessed as cell viability at 50 uM preincubated for 24 hrs and measured after 4 hrs by CCK-8 assay; type: functional, cell-based
[6] = system: PC-12; assay: (§1) Neuroprotective activity against H2O2-induced rat PC12 cells assessed as protection against H2O2-induced apoptosis by measuring viable cells at 50 uM pretreated for 2 hrs followed by H2O2 addition and measured after 24 hrs by Annexin V-FITC/PI staining based flow cytometry analysis (reference value: 90.8 %); type: functional; details: time 26 hrs
[7] = system: PC-12; assay: as §1, with “early apoptotic” for “viable”, “0.88” for “90.8”; type: functional; details: time 26 hrs
[8] = system: PC-12; assay: as §1, with “late apoptotic” for “viable”, “7.26” for “90.8”; type: functional; details: time 26 hrs
[9] = system: PC-12; assay: as §1, with “necrotic” for “viable”, “0.99” for “90.8”; type: functional; details: time 26 hrs
[10] = Inhibition of H2O2-induced ROS release in rat PC12 cells assessed as mean fluorescence intensity at 50 uM preincubated for 2 hrs followed by H2O2 addition and measured after 24 hrs by DCFH-DA based flow cytometry analysis (reference value: 23904); type: functional, PC-12; details: time 26 hrs
[11] = Acute toxicity in male ICR mouse assessed as mortality at 100 to 1000 mg/kg, po administered as single dose for 14 days; type: organism-based; details: in vivo, 336 h, dose 100-1000 mg/kg, time 14 day
[12] = Acute toxicity in male ICR mouse assessed as effect on body weight at 100 to 1000 mg/kg, po administered for 14 days; type: organism-based; details: in vivo, 336 h, dose 100-1000 mg/kg, time 14 day
[13] = Acute toxicity in male ICR mouse assessed as microscopic heart damage at 100 to 1000 mg/kg, po administered for 14 days by hematoxylin and eosin staining based assay; type: organism-based; details: in vivo, 336 h, dose 100-1000 mg/kg, time 14 day
[14] = Acute toxicity in male ICR mouse assessed as microscopic liver damage at 100 to 1000 mg/kg, po administered for 14 days by hematoxylin and eosin staining based assay; type: organism-based; details: in vivo, 336 h, dose 100-1000 mg/kg, time 14 day
[15] = Acute toxicity in male ICR mouse assessed as microscopic spleen damage at 100 to 1000 mg/kg, po administered for 14 days by hematoxylin and eosin staining based assay; type: organism-based; details: in vivo, 336 h, dose 100-1000 mg/kg, time 14 day
[16] = Acute toxicity in male ICR mouse assessed as microscopic lungs damage at 100 to 1000 mg/kg, po administered for 14 days by hematoxylin and eosin staining based assay; type: organism-based; details: in vivo, 336 h, dose 100-1000 mg/kg, time 14 day
[17] = Acute toxicity in male ICR mouse assessed as microscopic kidneys damage at 100 to 1000 mg/kg, po administered for 14 days by hematoxylin and eosin staining based assay; type: organism-based; details: in vivo, 336 h, dose 100-1000 mg/kg, time 14 day
[18] = Acute toxicity in male ICR mouse assessed as microscopic brain damage at 100 to 1000 mg/kg, po administered for 14 days by hematoxylin and eosin staining based assay; type: organism-based; details: in vivo, 336 h, dose 100-1000 mg/kg, time 14 day
[19] = system: Mus musculus; assay: Antialzheimer activity against amyloid beta (1 to 42)-induced ICR mouse cognitive deficit model assessed as increase in alternation performance at 2.5 mg/kg, po administered daily and measured on day 12 by Y-maze test relative to control; type: functional; details: time 12 day
[20] = system: Mus musculus; assay: Antialzheimer activity against amyloid beta (1 to 42)-induced ICR mouse cognitive deficit model assessed as increase in alternation performance at 10 mg/kg, po administered daily and measured on day 12 by Y-maze test relative to control; type: functional; details: time 12 day
[21] = system: Mus musculus; assay: Antialzheimer activity against amyloid beta (1 to 42)-induced ICR mouse cognitive deficit model assessed as increase in step-through latency time at 5 to 10 mg/kg, po administered daily and measured on day 13 and 14 by step-through passive avoidance test; type: functional, organism-based; details: dose 5-10 mg/kg, time 13-14 day
[22] = system: Mus musculus; assay: Antialzheimer activity against amyloid beta (1 to 42)-induced ICR mouse memory impairment model assessed as mean escape latency at 2.5 to 10 mg/kg, po administered daily and measured after 15 to 19 days by Morris water maze test; type: functional, organism-based; details: dose 2.5-10 mg/kg, time 15-19 day
[23] = system: Mus musculus; assay: Antialzheimer activity against amyloid beta (1 to 42)-induced ICR mouse memory impairment model assessed as decrease in movement distance at 2.5 to 10 mg/kg, po administered daily and measured after 15 to 19 days by Morris water maze test; type: functional, organism-based; details: dose 2.5-10 mg/kg, time 15-19 day
[24] = system: Mus musculus; assay: Antialzheimer activity against amyloid beta (1 to 42)-induced ICR mouse cognitive deficit model assessed as increase in alternation performance at 5 mg/kg, po administered daily and measured on day 12 by Y-maze test relative to control; type: functional; details: time 12 day
[25] = system: Mus musculus; assay: Antialzheimer activity in amyloid beta (1 to 42 residues) induced ICR mouse memory impairment model assessed as increase in trajectory after platform removal at 2.5 to 10 mg/kg, po administered daily and measured after 15 to 19 days by Morris water maze test; type: functional, organism-based; details: dose 2.5-10 mg/kg, time 15-19 day
[26] = system: Mus musculus; assay: Antialzheimer activity in amyloid beta (1 to 42 residues) induced ICR mouse assessed as increase in distance travelled within target quadrant at 2.5 to 5 mg/kg, po administered daily and measured after 15 to 19 days by Morris water maze test; type: functional, organism-based; details: dose 2.5-5 mg/kg, time 15-19 day
[27] = system: Mus musculus; assay: Antialzheimer activity in amyloid beta (1 to 42 residues) induced ICR mouse assessed as increase in time spent within target quadrant at 2.5 to 5 mg/kg, po administered daily and measured after 15 to 19 days by Morris water maze test; type: functional, organism-based; details: dose 2.5-5 mg/kg, time 15-19 day
[28] = system: Mus musculus; assay: Antialzheimer activity in scopolamine-induced temporary memory and cognitive impairment ICR mouse model assessed as increase in step-through latency time at 2.5 to 10 mg/kg, po administered daily and measured on day 13 and 14 by step-through passive avoidance test; type: functional, organism-based; details: dose 2.5-10 mg/kg, time 13-14 day
[29] = system: Mus musculus; assay: Antialzheimer activity in scopolamine-induced temporary memory and cognitive impairment ICR mouse model assessed as alternation performance at 2.5 to 5 mg/kg, po administered daily and measured on day 15 by Y-maze test; type: functional, organism-based; details: dose 2.5-5 mg/kg, time 15.0 day
[30] = system: Mus musculus; assay: Antialzheimer activity in scopolamine-induced temporary memory and cognitive impairment ICR mouse model assessed as alternation performance at 10 mg/kg, po administered daily and measured on day 15 by Y-maze test; type: functional, organism-based; details: time 15.0 day
[31] = system: Mus musculus; assay: Antialzheimer activity against scopolamine-induced ICR mouse cognitive deficit model assessed as latency time at 2.5 to 10 mg/kg, po administrated daily and measured on initial day of training by Morris water maze test; type: functional; details: dose 2.5-10 mg/kg
[32] = system: Mus musculus; assay: Antialzheimer activity against scopolamine-induced ICR mouse cognitive deficit model assessed as decrease in latency time at 2.5 to 10 mg/kg, po administrated daily and measured on last day of training by Morris water maze test; type: functional, organism-based; details: dose 2.5-10 mg/kg
[33] = system: Mus musculus; assay: Antialzheimer activity against scopolamine-induced ICR mouse cognitive deficit model assessed as decrease in movement distance at 2.5 to 10 mg/kg, po administrated daily and measured on last day of training by Morris water maze test; type: functional, organism-based; details: dose 2.5-10 mg/kg
[34] = Cytotoxicity against rat PC12 cells assessed as cell viability at 50 uM preincubated for 24 hrs and measured after 4 hrs by CCK-8 assay; type: toxicity, cell-based, PC-12; details: time 28 hrs, read-out: Activity
[35] = system: Mus musculus; assay: Antialzheimer activity in scopolamine-induced ICR mouse assessed as increase in trajectory within target quadrant at 2.5 to 10 mg/kg, po administered daily and measured after 16 to 20 days by Morris water maze test; type: functional, organism-based; details: dose 2.5-10 mg/kg, time 16-20 day
[36] = system: Mus musculus; assay: Antialzheimer activity in scopolamine- induced ICR mouse assessed as increase in time spent within target quadrant at 2.5 to 10 mg/kg, po administered daily and measured after 16 to 20 days by Morris water maze test; type: functional, organism-based; details: dose 2.5-10 mg/kg, time 16-20 day
[37] = system: Mus musculus; assay: Antialzheimer activity in scopolamine- induced ICR mouse assessed as increase in distance travelled within target quadrant at 2.5 to 10 mg/kg, po administered daily and measured after 16 to 20 days by Morris water maze test; type: functional, organism-based; details: dose 2.5-10 mg/kg, time 16-20 day

T1 sequence (P06276 whole entry): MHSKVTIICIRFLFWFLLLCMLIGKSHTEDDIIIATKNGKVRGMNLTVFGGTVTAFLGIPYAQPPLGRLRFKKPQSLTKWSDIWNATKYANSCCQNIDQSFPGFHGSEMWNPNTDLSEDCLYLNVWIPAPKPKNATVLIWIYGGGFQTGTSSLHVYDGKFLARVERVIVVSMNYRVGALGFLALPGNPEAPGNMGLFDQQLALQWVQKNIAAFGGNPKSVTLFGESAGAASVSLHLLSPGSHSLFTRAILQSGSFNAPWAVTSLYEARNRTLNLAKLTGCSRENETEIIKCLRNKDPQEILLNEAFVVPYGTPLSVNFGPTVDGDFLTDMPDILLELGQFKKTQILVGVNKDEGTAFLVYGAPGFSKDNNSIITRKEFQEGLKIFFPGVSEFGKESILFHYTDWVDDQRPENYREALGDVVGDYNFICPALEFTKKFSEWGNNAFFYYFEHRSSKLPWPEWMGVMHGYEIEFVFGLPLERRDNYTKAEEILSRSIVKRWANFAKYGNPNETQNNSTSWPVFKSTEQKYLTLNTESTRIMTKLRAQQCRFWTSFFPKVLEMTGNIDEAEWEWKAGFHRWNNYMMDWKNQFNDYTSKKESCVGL

Work on COc1ccc2c3c1O[C@H]1C[C@@H](OCc4ccc(Cc5ccccc5F)cn4)C=C[C@@]31CCN(C)C2 yielded an inhibition [1] of 96.5%, an IC50 [2] of 0.514 µM and an IC50 [3] of 0.358 µM. For the same compound, the Activity [4] was “Dose-dependent-effect”, the Activity [5] was “Active” and the Activity [6] was 86%. The Activity [7] was 5.42%, the Activity [8] was 7.35% and the Activity [9] was 1.21%. The Flu intensity [10] was 41314, the Activity [11] was “Non-toxic” and the Activity [12] was “Non-toxic”. The Activity [13] was “Non-toxic”, the Activity [14] was “Non-toxic” and the Activity [15] was “Non-toxic”. The Activity [16] was “Non-toxic”, the Activity [17] was “Non-toxic” and the Activity [18] was “Non-toxic”. For the same compound, the Activity [19] was 72.91%, the Activity [20] was 76.91% and the Activity [21] was “Active”. The Activity [22] was “Active”, the Activity [23] was “Active” and the Activity [24] was 73.56%. The Activity [25] was “Active”, the Activity [26] was “Active” and the Activity [27] was “Active”. The Activity [28] was “Dose-dependent-effect”, the Activity [29] was “Active” and the Activity [30] was “inactive”. For the same compound, the Time [31] was 60 s, the Activity [32] was “Active” and the Activity [33] was “Active”. The viability at 4 h, 50 µM [34] was greater than 90%, the Activity [35] was “Active” and the Activity [36] was “Dose-dependent-effect”. For the same compound, the Activity [37] was “Dose-dependent-effect”.
